Data as given in US20110097385A1, “Delivery System for Drug and Cell Therapy” (TTDC BIO L.P., priority 2003, published 2011).

How the values were obtained:
[1] = tested on: mice; experiment: Blood glucose in mice after injected insulin with or without crystallized dextran microparticles; assay type: in vivo; conditions: mouse
Method: The suspension was prepared as follows. 5.0 g of Dextran T10 (Pharmacia, Uppsala, Sweden) was dissolved in 20.0 g of water. The solution was filtered through a 0.22 μm filter (Millipore, Bedford, Mass.) and freeze dried. 3.0 g of the resulting powder was dissolved in 3.0 g of sterile water and placed in box at temperature 60° C. […] Finally, the produced crystallized dextran microparticles suspension was mixed with aqueous insulin solution and used in the experiment with mice. Samples of the suspension were introduced into the mice's legs and samples of animal blood were taken from each mouse's tail and analyzed for glucose concentrations.
In comparative example 15, no insulin was injected into the mouse.

[2] = tested on: mouse; experiment: Blood glucose in mouse after subcutaneous two phase composition or insulin alone; assay type: in vivo; conditions: 0.5 UI insulin subcutaneously
Method: 0.05 ml of the PEG and insulin solution is mixed with 0.15 ml of the microparticle and dextran suspension to form a two phase composition or mixture. 0.02 ml of the two phase mixture containing 0.5 UI of insulin is injected subcutaneously into mouse.

[3] = tested on: humans; conditions: in humans, company information (Novo Nordisk); cited from earlier work
[4] = tested on: Chinchilla rabbits; experiment: Blood glucose and duration of efficacy in rabbits after subcutaneous insulin formulations; conditions: rabbit, 8 UI subcutaneously
Method: Samples of the formulation were subcutaneously injected into the rabbits. […] Samples of animal blood were taken from the rabbit's ear vein and analyzed for glucose concentration. Blood glucose concentration was measured with a glucose analyzer (One-Touch® Lifescan, Johnson & Johnson, Milpitas, Calif., USA) after proper calibration.
In comparative examples 23 and 24, two intact rabbits were not provided any insulin.

[5] = insulin 0.5 UI injected, listed as 16
[6] = insulin 0.5 UI injected, listed as 21

Actrapid HM®: short-acting human recombinant insulin of Novo Nordisk, injected alone; Ex 21 is the average of 16 and 17
change of blood glucose level from 120 minutes to 390 minutes after injection ([1]; insulin 0.5 UI): did substantially increase | glucose 0 min ([1]; insulin 0.5 UI injected): 8.1 mmol/L | glucose 0 min [1, 5]: 5.9 mmol/L | glucose 0 min [1, 6]: 7 mmol/L | glucose 15 min ([1]; insulin 0.5 UI injected): 3.8 mmol/L | glucose 15 min [1, 5]: 3.3 mmol/L | glucose 15 min [1, 6]: 3.6 mmol/L | glucose 30 min ([1]; insulin 0.5 UI injected): 2.8 mmol/L | glucose 30 min [1, 5]: 2.7 mmol/L | glucose 30 min [1, 6]: 2.8 mmol/L | glucose 45 min ([1]; insulin 0.5 UI injected): 1.9 mmol/L | glucose 45 min [1, 5]: 1.8 mmol/L | glucose 45 min [1, 6]: 1.9 mmol/L | glucose 120 min ([1]; insulin 0.5 UI injected, 120 min): 0.9 mmol/L | glucose 210 min ([1]; insulin 0.5 UI injected): 3.7 mmol/L | glucose 210 min [1, 5]: 3.5 mmol/L | glucose 210 min [1, 6]: 3.6 mmol/L | glucose 270 min ([1]; insulin 0.5 UI injected): 3.4 mmol/L | glucose 270 min [1, 5]: 3.0 mmol/L | glucose 270 min [1, 6]: 3.2 mmol/L | glucose 390 min ([1]; insulin 0.5 UI injected): 3.5 mmol/L | glucose 390 min [1, 5]: 3.2 mmol/L | glucose 390 min [1, 6]: 3.4 mmol/L | glucose 15 min ([2]; 15 min): 3.7 mmol/L | glucose 30 min ([2]; 30 min): 2.3 mmol/L | glucose 45 min ([2]; 45 min): 1.7 mmol/L | glucose 60 min ([2]; 60 min): 2.9 mmol/L | glucose 120 min ([2]; 120 min): 6.7 mmol/L | advertised duration of efficacy [3]: eight

Monotard HM®: long-acting insulin of Novo Nordisk (40 UI/ml), injected subcutaneously alone at 8 UI
advertised duration of efficacy [3]: twenty four | glucose 0 hours ([4]; 0 hours): 5.4 mmol/L | glucose 0.5 hours ([4]; listed as 25): 5.8 mmol/L | glucose 0.5 hours ([4]; listed as 26): 5.0 mmol/L | glucose 1 hour ([4]; listed as 25): 3.8 mmol/L | glucose 1 hour ([4]; listed as 26): 4.2 mmol/L | glucose 1.5 hours ([4]; listed as 25): 3.2 mmol/L | glucose 1.5 hours ([4]; listed as 26): 2.9 mmol/L | glucose 2 hours ([4]; listed as 25): 2.4 mmol/L | glucose 2 hours ([4]; listed as 26): 2.5 mmol/L | glucose 16 hours ([4]; listed as 25): 3.9 mmol/L | glucose 16 hours ([4]; listed as 26): 4.0 mmol/L | glucose 24 hours ([4]; listed as 25): 5.6 mmol/L | glucose 24 hours ([4]; listed as 26): 5.1 mmol/L | glucose […] ([4]; listed as 25): 2.6 mmol/L | glucose […] ([4]; listed as 26): 2.4 mmol/L
